The text below walks through data of ChEMBL document CHEMBL2074533, “OATP1B1, OATP1B3, and mrp2 are involved in hepatobiliary transport of olmesartan, a novel angiotensin II blocker” (Drug Metab Dispos, 2006).

Data set [1] has as its target ATP-binding cassette sub-family C member 2 (Rattus norvegicus, UniProt Q63120). The data set is described as follows: TP_TRANSPORTER: biliary excretion in EHBR rat. Type of data set: functional, organism-based, Bile. The conditions noted are these: in vivo.
Data set [2] has as its target T1, Hepatic sodium/bile acid cotransporter (Homo sapiens, UniProt Q14973).
T1 sequence (Q14973 whole entry): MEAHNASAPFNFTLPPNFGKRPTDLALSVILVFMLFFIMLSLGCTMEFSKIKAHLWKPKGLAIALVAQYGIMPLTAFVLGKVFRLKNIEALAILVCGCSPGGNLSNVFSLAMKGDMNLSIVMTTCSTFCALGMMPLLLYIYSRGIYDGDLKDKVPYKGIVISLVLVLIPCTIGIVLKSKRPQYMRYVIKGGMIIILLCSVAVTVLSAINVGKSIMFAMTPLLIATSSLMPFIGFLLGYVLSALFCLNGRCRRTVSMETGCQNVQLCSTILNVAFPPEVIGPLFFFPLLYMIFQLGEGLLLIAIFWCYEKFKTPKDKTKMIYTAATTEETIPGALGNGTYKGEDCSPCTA
The data set is described as follows: TP_TRANSPORTER: transport in NTCP-transfected HEK-293 cells. The conditions noted are these: hek293. The data set is classed as functional, cell-based.

In data set [3] the target is T2, ATP-binding cassette sub-family C member 2 (Homo sapiens, UniProt Q92887). The experiment in a line: TP_TRANSPORTER: transport in hCMV cells. The data set is classed as functional, cell membranes, Canalicular membrane vesicle.
T2 sequence (Q92887 whole entry): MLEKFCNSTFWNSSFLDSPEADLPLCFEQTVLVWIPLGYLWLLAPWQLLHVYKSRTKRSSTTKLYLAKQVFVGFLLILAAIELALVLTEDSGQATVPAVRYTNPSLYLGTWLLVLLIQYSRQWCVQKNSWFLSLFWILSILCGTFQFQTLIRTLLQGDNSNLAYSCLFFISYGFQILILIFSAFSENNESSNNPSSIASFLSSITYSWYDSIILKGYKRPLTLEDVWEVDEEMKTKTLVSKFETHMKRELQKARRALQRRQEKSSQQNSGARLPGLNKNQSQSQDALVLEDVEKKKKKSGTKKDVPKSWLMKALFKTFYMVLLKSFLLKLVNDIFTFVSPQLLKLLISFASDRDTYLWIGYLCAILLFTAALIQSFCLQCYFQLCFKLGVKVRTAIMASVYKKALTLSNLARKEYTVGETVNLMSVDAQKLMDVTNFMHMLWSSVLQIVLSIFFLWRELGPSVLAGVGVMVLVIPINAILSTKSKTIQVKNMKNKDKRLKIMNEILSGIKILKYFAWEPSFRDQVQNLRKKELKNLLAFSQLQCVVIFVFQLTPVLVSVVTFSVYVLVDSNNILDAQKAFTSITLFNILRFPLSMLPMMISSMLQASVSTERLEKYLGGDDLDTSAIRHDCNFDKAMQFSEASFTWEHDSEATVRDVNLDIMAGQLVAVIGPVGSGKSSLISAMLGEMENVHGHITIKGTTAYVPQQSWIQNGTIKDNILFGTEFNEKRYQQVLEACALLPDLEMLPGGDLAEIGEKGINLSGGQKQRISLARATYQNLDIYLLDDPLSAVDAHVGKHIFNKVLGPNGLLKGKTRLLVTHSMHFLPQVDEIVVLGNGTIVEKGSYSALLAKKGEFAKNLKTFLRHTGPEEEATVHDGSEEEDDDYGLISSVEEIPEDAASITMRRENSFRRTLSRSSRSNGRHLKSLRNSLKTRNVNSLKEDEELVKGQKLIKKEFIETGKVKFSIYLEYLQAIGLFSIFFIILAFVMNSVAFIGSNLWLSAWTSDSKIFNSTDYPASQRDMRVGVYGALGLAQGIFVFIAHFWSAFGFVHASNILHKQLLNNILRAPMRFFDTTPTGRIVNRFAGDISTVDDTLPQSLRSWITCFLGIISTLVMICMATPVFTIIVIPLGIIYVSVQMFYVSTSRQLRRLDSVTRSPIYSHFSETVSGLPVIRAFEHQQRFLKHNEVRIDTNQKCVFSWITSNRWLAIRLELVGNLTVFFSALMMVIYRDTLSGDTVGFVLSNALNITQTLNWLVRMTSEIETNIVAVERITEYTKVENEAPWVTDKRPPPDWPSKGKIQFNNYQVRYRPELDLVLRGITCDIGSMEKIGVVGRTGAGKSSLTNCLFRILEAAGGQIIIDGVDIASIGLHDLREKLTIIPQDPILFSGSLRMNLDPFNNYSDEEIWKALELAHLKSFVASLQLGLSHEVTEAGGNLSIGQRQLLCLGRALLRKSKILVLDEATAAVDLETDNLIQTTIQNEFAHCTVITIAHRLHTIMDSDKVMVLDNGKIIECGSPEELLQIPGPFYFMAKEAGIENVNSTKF
The target in the next data set is T3, OATP1B3 (Homo sapiens, UniProt Q9NPD5).
T3 sequence (Q9NPD5 whole entry): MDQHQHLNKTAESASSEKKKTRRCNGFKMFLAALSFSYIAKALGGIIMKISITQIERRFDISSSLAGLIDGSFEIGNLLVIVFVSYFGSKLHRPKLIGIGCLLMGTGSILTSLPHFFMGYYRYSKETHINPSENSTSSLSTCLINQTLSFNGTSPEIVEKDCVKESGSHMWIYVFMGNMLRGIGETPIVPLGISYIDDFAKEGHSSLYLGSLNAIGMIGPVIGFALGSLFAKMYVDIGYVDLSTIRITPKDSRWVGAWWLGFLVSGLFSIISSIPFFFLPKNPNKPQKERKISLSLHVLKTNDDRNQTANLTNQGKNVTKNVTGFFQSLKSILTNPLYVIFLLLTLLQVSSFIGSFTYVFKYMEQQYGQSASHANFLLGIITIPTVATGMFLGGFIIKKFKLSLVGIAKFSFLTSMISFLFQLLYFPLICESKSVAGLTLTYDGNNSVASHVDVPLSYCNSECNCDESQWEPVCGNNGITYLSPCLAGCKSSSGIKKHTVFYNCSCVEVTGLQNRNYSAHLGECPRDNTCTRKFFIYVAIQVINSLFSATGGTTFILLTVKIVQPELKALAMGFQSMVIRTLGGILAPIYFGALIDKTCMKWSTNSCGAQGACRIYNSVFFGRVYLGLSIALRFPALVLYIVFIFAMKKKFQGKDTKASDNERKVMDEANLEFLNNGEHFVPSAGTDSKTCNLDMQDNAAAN
The data set is described as follows: TP_TRANSPORTER: transport in OATP1B3-expressing oocytes. Type of data set: functional, cell-based, Oocyte.

Data set [4] addresses T2, ATP-binding cassette sub-family C member 2. The data set is described as follows: TP_TRANSPORTER: transport in MRP2-expressing vesicles. Type of data set: functional, subcellular.
Substrate in data set [5]: CCCc1nc(C(C)(C)O)c(C(=O)O)n1Cc1ccc(-c2ccccc2-c2nnn[nH]2)cc1
The experiment in a line: TP_TRANSPORTER: transport in OATP1B1-expressing oocytes. Type of data set: functional, cell-based, Oocyte.

One may read the Km as the concentration of substrate that gives half-maximal velocity.

ATP-binding cassette sub-family C member 2 (Rattus norvegicus, UniProt Q63120), sequence (Q63120 whole entry): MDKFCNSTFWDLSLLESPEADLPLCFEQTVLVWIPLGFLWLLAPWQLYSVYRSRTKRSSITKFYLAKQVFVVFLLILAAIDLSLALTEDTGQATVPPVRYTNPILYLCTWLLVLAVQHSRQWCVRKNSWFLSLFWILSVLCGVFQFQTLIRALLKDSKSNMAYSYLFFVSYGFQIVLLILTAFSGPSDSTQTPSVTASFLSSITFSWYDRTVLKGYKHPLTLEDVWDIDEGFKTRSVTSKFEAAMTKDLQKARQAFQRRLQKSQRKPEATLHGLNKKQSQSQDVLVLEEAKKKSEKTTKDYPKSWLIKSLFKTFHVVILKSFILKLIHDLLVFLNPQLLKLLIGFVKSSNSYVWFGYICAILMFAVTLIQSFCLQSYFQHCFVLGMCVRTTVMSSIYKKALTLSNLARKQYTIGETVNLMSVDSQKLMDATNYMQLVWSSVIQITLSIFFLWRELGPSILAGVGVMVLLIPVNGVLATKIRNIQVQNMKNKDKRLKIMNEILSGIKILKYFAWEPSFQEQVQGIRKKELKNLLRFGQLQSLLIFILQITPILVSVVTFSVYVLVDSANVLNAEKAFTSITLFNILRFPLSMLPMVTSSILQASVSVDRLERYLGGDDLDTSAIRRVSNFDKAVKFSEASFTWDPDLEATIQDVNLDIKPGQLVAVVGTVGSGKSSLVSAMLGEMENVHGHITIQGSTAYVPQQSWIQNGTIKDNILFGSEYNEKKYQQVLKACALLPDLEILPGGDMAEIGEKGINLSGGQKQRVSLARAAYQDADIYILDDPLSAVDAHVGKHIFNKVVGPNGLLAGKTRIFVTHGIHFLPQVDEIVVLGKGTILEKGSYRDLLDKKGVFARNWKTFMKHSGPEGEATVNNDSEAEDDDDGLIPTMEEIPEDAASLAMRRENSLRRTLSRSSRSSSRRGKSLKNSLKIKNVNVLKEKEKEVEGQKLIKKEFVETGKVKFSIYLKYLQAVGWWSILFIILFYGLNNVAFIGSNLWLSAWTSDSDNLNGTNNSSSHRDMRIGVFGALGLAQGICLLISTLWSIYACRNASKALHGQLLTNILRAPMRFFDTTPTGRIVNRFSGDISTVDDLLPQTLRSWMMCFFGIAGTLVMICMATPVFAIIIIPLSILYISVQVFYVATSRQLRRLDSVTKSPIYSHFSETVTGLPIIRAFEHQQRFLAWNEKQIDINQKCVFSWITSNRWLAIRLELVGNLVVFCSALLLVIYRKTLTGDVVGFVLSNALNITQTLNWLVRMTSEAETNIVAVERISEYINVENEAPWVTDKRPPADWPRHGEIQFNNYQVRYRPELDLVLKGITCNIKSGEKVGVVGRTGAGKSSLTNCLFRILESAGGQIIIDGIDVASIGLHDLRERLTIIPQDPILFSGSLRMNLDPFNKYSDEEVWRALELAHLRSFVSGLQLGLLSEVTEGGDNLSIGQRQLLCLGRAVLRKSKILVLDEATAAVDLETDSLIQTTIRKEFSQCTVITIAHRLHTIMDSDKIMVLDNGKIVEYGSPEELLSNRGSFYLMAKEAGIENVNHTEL

On to `CCCc1nc(C(C)(C)O)c(C(=O)O)n1Cc1ccc(-c2ccccc2-c2nnn[nH]2)cc1` [OLMESARTAN], for which the Activity result was “substrate [+]” in data set [1], “is not a substrate [-]” in data set [2], “substrate [+]” in data set [3] and “substrate [+]” in data set [4]. Also, the Michaelis-Menten constant (Km) at OATP1B3 was 71.8 µM.

B1: Solute carrier organic anion transporter family member 1B1 (Homo sapiens) (protein)
chain: MDQNQHLNKTAEAQPSENKKTRYCNGLKMFLAALSLSFIAKTLGAIIMKSSIIHIERRFEISSSLVGFIDGSFEIGNLLVIVFVSYFGSKLHRPKLIGIGCFIMGIGGVLTALPHFFMGYYRYSKETNINSSENSTSTLSTCLINQILSLNRASPEIVGKGCLKESGSYMWIYVFMGNMLRGIGETPIVPLGLSYIDDFAKEGHSSLYLGILNAIAMIGPIIGFTLGSLFSKMYVDIGYVDLSTIRITPTDSRWVGAWWLNFLVSGLFSIISSIPFFFLPQTPNKPQKERKASLSLHVLETNDEKDQTANLTNQGKNITKNVTGFFQSFKSILTNPLYVMFVLLTLLQVSSYIGAFTYVFKYVEQQYGQPSSKANILLGVITIPIFASGMFLGGYIIKKFKLNTVGIAKFSCFTAVMSLSFYLLYFFILCENKSVAGLTMTYDGNNPVTSHRDVPLSYCNSDCNCDESQWEPVCGNNGITYISPCLAGCKSSSGNKKPIVFYNCSCLEVTGLQNRNYSAHLGECPRDDACTRKFYFFVAIQVLNLFFSALGGTSHVMLIVKIVQPELKSLALGFHSMVIRALGGILAPIYFGALIDTTCIKWSTNNCGTRGSCRTYNSTSFSRVYLGLSSMLRVSSLVLYIILIYAMKKKYQEKDINASENGSVMDEANLESLNKNKHFVPSAGADSETHC
With B1, the Km in data set [5] turned out to be 42.6 µM.
